{"source": "ChEMBL document CHEMBL2401692", "about": "“Synthesis, structure-activity relationships, and in vivo efficacy of the novel potent and selective anaplastic lymphoma kinase (ALK) inhibitor 5-chloro-N2-(2-isopropoxy-5-methyl-4-(piperidin-4-yl)phenyl)-N4-(2-(isopropylsulfonyl)phenyl)pyrimidine-2,4-diamine (LDK378) currently in phase 1 and phase …” (J Med Chem, 2013)", "key": {"[1]": {"target": "T1, Fibroblast growth factor receptor 3 (Homo sapiens, UniProt P22607)", "assay": "Inhibition of FGFR3 (unknown origin) after 60 mins"}, "[2]": {"assay": "Half life in cynomolgus monkey at 5 mg/kg, iv", "type": "ADME, organism-based, Macaca fascicularis", "design": "dose 5 mg/kg, route intravenous", "details": "in vivo; call rule not given here"}, "[3]": {"target": "T1, Fibroblast growth factor receptor 3", "assay": "Inhibition of TEL-fused FGFR3 (unknown origin) by cell-based assay"}, "[4]": {"assay": "in vivo", "details": "Sprague-Dawley, rat, iv, 3 mg/kg"}, "[5]": {"target": "Tyrosine-protein kinase BTK (Homo sapiens, UniProt Q06187)", "assay": "Inhibition of BTK (unknown origin) after 60 mins"}, "[6]": {"target": "Platelet-derived growth factor receptor alpha (Homo sapiens, UniProt P16234)", "sequence (P16234 whole entry)": "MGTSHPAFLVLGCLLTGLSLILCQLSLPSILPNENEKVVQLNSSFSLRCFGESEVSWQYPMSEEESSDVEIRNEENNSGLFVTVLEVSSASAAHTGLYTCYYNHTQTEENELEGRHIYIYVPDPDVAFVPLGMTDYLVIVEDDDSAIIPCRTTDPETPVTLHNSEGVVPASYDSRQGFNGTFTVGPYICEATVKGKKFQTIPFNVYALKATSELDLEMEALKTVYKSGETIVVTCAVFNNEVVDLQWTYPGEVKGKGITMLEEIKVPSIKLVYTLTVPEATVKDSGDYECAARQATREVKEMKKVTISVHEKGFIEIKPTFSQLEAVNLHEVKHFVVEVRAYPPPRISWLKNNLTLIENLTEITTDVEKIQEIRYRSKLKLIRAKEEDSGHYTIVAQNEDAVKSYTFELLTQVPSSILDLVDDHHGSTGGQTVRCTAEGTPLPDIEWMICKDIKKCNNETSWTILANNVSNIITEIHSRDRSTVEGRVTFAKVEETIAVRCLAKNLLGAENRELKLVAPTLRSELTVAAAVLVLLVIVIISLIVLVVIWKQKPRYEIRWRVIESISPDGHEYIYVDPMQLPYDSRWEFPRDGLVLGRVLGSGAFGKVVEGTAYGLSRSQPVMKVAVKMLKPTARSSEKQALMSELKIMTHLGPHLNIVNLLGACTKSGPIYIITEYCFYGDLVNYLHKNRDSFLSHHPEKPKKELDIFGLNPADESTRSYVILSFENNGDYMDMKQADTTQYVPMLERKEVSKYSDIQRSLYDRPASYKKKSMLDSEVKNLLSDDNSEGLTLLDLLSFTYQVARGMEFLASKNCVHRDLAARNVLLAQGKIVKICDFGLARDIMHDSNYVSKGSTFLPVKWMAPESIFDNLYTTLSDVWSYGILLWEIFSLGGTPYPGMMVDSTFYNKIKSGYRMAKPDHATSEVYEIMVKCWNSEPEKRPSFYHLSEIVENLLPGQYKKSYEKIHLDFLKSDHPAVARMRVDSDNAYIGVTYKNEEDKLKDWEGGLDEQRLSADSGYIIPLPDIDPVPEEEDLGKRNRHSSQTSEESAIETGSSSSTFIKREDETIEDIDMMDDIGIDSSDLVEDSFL", "assay": "Inhibition of PDGFRalpha (unknown origin) after 60 mins"}, "[7]": {"assay": "AUC in BALB/c mouse at 20 mg/kg, po", "type": "ADME, organism-based", "design": "dose 20 mg/kg, route oral", "details": "plasma"}, "[8]": {"assay": "Drug uptake in tumor of Rowett nude rat xenografted with human KARPAS299 cells at 50 mg/kg, po", "type": "ADME, organism-based, Neoplasm, KARPAS-299", "design": "dose 50 mg/kg, route oral", "details": "in vivo"}, "[9]": {"target": "Proto-oncogene tyrosine-protein kinase Src (Homo sapiens, UniProt P12931)", "assay": "Inhibition of TEL-fused SRC (unknown origin) by cell-based assay"}, "[10]": {"assay": "Cmax in Beagle dog at 5 mg/kg, iv", "type": "ADME, organism-based, Canis lupus familiaris", "design": "dose 5 mg/kg, route intravenous", "details": "in vivo"}, "[11]": {"target": "Tyrosine-protein kinase Fgr (Homo sapiens, UniProt P09769)", "sequence (P09769 whole entry, the tested form may be a part)": "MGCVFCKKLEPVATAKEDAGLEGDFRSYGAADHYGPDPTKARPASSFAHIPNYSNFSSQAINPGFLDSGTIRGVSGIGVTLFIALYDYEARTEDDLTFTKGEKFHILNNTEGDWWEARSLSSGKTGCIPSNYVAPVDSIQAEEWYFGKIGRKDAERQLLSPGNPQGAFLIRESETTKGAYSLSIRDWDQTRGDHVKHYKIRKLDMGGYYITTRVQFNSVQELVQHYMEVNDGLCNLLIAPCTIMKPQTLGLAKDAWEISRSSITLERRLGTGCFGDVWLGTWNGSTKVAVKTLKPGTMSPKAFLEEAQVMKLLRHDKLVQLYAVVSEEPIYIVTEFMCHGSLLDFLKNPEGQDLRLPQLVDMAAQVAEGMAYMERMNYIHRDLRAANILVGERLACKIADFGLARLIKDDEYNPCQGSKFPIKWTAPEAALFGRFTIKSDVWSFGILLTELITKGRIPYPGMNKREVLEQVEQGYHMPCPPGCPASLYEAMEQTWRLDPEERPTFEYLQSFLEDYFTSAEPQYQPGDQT", "assay": "Inhibition of TEL-fused FGR (unknown origin) by cell-based assay"}, "[12]": {"test_system": "KARPAS-299", "details": "Homo sapiens", "description": "Antitumor activity against human KARPAS299 cells xenografted in po dosed Rowett nude rat assessed as tumor growth inhibition administered for 14 days measured 7 to 72 hrs post dosing"}, "[13]": {"assay": "Intrinsic clearance in mouse liver microsomes", "type": "ADME, Microsome", "details": "read-out: CLH"}, "[14]": {"target": "Glycogen synthase kinase-3 beta (Homo sapiens, UniProt P49841)", "sequence (P49841 whole entry)": "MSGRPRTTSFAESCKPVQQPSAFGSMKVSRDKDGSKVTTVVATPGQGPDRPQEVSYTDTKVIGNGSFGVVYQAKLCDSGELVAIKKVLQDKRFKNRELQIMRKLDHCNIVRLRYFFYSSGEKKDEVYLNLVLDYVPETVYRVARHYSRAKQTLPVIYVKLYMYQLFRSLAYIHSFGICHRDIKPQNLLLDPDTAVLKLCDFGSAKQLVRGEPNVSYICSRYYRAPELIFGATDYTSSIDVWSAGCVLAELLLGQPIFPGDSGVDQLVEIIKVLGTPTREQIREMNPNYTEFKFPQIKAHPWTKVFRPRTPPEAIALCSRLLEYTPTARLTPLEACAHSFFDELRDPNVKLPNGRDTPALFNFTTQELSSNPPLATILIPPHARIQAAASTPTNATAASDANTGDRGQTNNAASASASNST", "assay": "Inhibition of GSK3beta (unknown origin) after 60 mins"}, "[15]": {"assay": "Tmax in Beagle dog at 20 mg/kg, po", "type": "ADME, organism-based, Canis lupus familiaris", "design": "dose 20 mg/kg, route oral", "details": "in vivo"}, "[16]": {"assay": "AUC in cynomolgus monkey at 60 mg/kg, po", "type": "ADME, organism-based, Macaca fascicularis", "design": "dose 60 mg/kg, route oral", "details": "plasma"}, "[17]": {"target": "Hepatocyte growth factor receptor (Homo sapiens, UniProt P08581)", "sequence (P08581 25-1390 limits assumed)": "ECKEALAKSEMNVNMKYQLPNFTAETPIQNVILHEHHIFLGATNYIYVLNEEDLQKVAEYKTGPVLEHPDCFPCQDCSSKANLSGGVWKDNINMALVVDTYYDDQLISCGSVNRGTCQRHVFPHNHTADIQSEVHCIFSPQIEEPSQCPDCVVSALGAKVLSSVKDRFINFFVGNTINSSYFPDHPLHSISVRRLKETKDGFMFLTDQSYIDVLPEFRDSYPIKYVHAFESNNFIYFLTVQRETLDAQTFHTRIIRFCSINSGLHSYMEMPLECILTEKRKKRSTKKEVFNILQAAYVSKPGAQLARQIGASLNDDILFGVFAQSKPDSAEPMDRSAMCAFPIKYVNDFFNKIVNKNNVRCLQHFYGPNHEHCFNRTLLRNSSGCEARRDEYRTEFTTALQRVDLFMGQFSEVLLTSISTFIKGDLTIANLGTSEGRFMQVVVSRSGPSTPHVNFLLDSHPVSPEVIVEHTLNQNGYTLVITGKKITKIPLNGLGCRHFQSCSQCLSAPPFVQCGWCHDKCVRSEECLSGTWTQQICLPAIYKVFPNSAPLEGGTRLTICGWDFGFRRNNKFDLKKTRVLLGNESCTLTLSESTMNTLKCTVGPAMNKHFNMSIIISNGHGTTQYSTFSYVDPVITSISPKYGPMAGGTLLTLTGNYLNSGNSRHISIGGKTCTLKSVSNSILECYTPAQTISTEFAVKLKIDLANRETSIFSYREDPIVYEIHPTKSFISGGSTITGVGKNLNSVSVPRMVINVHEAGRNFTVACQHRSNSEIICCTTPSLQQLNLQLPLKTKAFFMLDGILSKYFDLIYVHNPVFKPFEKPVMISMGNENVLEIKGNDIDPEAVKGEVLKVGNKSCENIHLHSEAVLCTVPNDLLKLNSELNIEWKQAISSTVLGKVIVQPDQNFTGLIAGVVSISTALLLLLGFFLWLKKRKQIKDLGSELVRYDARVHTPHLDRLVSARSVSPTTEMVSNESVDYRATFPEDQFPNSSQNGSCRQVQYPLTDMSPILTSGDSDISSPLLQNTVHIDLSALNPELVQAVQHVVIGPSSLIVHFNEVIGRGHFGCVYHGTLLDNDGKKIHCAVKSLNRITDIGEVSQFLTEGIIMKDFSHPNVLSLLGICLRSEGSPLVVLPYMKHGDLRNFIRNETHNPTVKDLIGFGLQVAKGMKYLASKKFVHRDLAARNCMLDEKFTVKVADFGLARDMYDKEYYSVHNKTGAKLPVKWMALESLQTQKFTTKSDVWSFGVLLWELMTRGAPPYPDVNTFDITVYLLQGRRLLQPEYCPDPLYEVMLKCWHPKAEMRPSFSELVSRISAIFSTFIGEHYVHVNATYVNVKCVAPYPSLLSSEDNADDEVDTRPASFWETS", "assay": "Inhibition of TEL-fused MET (unknown origin) by cell-based assay"}, "[18]": {"target": "Mast/stem cell growth factor receptor Kit (Homo sapiens, UniProt P10721)", "assay": "Inhibition of TEL-fused cKIT (unknown origin) by cell-based assay"}, "[19]": {"assay": "Volume of distribution at steady state in Sprague-Dawley rat at 3 mg/kg, iv", "type": "ADME, organism-based", "design": "dose 3 mg/kg, route intravenous", "details": "in vivo, read-out: Vdss"}, "[20]": {"assay": "Plasma clearance in Sprague-Dawley rat at 3 mg/kg, iv", "type": "ADME, organism-based", "design": "dose 3 mg/kg, route intravenous"}, "[21]": {"assay": "Oral bioavailability in BALB/c mouse at 20 mg/kg", "type": "ADME, organism-based", "details": "in vivo"}, "[22]": {"assay": "in vivo", "details": "Sprague-Dawley, rat, po, 10 mg/kg"}, "[23]": {"target": "Tyrosine-protein kinase Lck (Homo sapiens, UniProt P06239)", "sequence (P06239 whole entry, the tested form may be a part)": "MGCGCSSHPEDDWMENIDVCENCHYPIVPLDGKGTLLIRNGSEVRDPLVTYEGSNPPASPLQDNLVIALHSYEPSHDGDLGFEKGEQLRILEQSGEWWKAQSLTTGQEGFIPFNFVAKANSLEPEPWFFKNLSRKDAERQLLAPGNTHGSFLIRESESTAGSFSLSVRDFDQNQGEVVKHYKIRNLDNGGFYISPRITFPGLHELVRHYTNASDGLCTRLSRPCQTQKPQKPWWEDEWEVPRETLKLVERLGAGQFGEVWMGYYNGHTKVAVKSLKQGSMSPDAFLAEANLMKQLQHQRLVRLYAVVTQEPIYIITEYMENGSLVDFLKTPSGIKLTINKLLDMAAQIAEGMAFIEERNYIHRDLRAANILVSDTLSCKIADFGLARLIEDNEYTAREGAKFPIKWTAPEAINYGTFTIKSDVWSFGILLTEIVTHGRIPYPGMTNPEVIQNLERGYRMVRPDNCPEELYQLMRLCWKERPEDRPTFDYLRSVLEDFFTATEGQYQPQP", "assay": "Inhibition of TEL-fused LCK (unknown origin) by cell-based assay"}, "[24]": {"test_system": "KARPAS-299", "assay": "Antitumor activity against human KARPAS299 cells xenografted in Rowett nude rat assessed as tumor regression at 25 mg/kg, po for 14 days measured 7 to 72 hrs post dosing relative to control", "type": "functional"}, "[25]": {"target": "Tyrosine-protein kinase JAK2 (Homo sapiens, UniProt O60674)", "sequence (O60674 whole entry)": "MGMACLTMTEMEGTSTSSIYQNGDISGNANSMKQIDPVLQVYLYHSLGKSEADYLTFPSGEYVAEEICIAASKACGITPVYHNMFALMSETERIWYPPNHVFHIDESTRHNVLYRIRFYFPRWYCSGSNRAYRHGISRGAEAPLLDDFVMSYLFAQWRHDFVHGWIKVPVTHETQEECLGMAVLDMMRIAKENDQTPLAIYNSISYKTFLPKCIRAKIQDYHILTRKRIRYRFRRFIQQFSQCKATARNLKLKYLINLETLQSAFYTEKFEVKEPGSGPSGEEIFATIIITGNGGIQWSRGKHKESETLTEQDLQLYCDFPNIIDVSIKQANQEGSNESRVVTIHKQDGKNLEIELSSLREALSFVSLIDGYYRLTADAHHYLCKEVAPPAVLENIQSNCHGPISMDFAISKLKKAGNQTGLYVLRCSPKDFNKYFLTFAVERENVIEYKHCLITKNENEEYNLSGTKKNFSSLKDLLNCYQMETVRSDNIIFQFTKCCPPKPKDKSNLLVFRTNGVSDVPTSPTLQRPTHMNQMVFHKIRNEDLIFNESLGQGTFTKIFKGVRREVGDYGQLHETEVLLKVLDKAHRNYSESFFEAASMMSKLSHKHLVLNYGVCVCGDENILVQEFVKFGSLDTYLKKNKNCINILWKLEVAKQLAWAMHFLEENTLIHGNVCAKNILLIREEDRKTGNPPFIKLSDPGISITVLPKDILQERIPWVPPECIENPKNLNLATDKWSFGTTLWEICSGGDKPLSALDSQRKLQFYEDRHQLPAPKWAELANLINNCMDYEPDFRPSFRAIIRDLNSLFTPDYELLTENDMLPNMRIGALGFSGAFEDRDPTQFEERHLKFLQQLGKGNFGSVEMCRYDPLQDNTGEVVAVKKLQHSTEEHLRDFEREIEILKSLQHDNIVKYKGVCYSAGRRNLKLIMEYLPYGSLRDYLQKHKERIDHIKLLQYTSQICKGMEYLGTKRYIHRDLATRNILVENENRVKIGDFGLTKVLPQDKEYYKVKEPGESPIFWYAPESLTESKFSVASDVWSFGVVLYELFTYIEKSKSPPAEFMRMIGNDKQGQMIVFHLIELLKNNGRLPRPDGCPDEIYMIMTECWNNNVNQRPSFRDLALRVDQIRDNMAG", "assay": "Inhibition of JAK2 (unknown origin) after 60 mins"}, "[26]": {"target": "Cyclin-dependent kinase 4 (Homo sapiens, UniProt P11802)", "assay": "Inhibition of CDK4 (unknown origin) after 60 mins"}, "[27]": {"target": "Cytochrome P450 3A4 (Homo sapiens, UniProt P08684)", "assay": "Inhibition of CYP3A4 in human liver microsomes using midazolam as substrate by LC-MS/MS analysis", "type": "ADME, Microsome"}, "[28]": {"assay": "Cmax in BALB/c mouse at 20 mg/kg, po", "type": "ADME, organism-based", "design": "dose 20 mg/kg, route oral", "details": "in vivo"}, "[29]": {"assay": "AUC in Beagle dog at 20 mg/kg, po", "type": "ADME, organism-based, Canis lupus familiaris", "design": "dose 20 mg/kg, route oral", "details": "plasma"}, "[30]": {"assay": "Plasma clearance in Beagle dog at 5 mg/kg, iv", "type": "ADME, organism-based, Canis lupus familiaris", "design": "dose 5 mg/kg, route intravenous"}, "[31]": {"assay": "Inhibition of AKT (unknown origin) after 60 mins", "design": "species or system Homo sapiens"}, "[32]": {"assay": "AUC in BALB/c mouse at 5 mg/kg, iv", "type": "ADME, organism-based", "design": "dose 5 mg/kg, route intravenous", "details": "plasma"}, "[33]": {"assay": "Toxicity in po dosed Rowett nude rat xenografted with human KARPAS299 cells", "type": "organism-based, KARPAS-299", "details": "in vivo"}, "[34]": {"assay": "Half life in Sprague-Dawley rat at 3 mg/kg, iv", "type": "ADME, organism-based", "design": "dose 3 mg/kg, route intravenous", "details": "in vivo"}, "[35]": {"target": "Testis-specific serine/threonine-protein kinase 1 (Homo sapiens, UniProt Q9BXA7)", "assay": "Inhibition of STK22D (unknown origin) after 60 mins"}, "[36]": {"assay": "Cmax in cynomolgus monkey at 5 mg/kg, iv", "type": "ADME, organism-based, Macaca fascicularis", "design": "dose 5 mg/kg, route intravenous", "details": "in vivo"}, "[37]": {"target": "Tyrosine-protein kinase JAK3 (Homo sapiens, UniProt P52333)", "assay": "Inhibition of JAK3 (unknown origin) after 60 mins"}, "[38]": {"test_system": "NCI-H2228", "assay": "Antitumor activity against human NCI-H2228 cells xenografted in Rowett nude rat assessed as tumor growth inhibition factor at 10 mg/kg, po for 14 days measured 7 to 72 hrs post dosing relative to control", "type": "functional"}, "[39]": {"test_system": "Rattus norvegicus", "assay": "Toxicity in po dosed Rowett nude rat xenografted with human NCI-H2228 cells assessed as body weight loss at 5 to 25 mg/kg, po", "type": "organism-based", "design": "dose 5-25 mg/kg, route oral", "details": "in vivo"}, "[40]": {"target": "Tyrosine-protein kinase SYK (Homo sapiens, UniProt P43405)", "assay": "Inhibition of SYK (unknown origin) after 60 mins"}, "[41]": {"test_system": "NCI-H2228", "assay": "Antitumor activity against human NCI-H2228 cells xenografted in Rowett nude rat assessed as complete tumor regression at 25 mg/kg, po for 14 days measured 7 to 72 hrs post dosing relative to control", "type": "functional"}, "[42]": {"test_system": "KARPAS-299", "assay": "Antitumor activity against human KARPAS299 cells xenografted in Rowett nude rat assessed as tumor growth inhibition factor at 6.25 mg/kg, po for 14 days measured 7 to 72 hrs post dosing relative to control", "type": "functional"}}, "data": [{"smiles": "Cc1cc(Nc2ncc(Cl)c(Nc3ccccc3S(=O)(=O)C(C)C)n2)c(OC(C)C)cc1C1CCNCC1", "note": "[CERITINIB]", "values": [{"measurement": "IC50", "setting": "[1]", "result": 430, "unit": "nM"}, {"measurement": "half-life", "setting": "[2]", "result": 26, "unit": "h"}, {"measurement": "IC50", "setting": "[3]", "result": "> 10000", "unit": "nM"}, {"measurement": "Cmax", "setting": "[4]", "result": 770, "unit": "nM"}, {"measurement": "IC50", "setting": "[5]", "result": 3360, "unit": "nM"}, {"measurement": "IC50", "setting": "[6]", "result": 1140, "unit": "nM"}, {"measurement": "AUC", "setting": "[7]", "result": 12.3, "unit": "µM·h"}, {"measurement": "Drug uptake", "setting": "[8]", "result": "Active"}, {"measurement": "IC50", "setting": "[9]", "result": 1690, "unit": "nM"}, {"measurement": "Cmax", "setting": "[10]", "result": 2330, "unit": "nM"}, {"measurement": "IC50", "setting": "[11]", "result": 1950, "unit": "nM"}, {"measurement": "TGI", "setting": "[12]", "result": "Dose-dependent effect"}, {"measurement": "microsomal CLint", "setting": "[13]", "result": 15, "unit": "µL/min/mg"}, {"measurement": "IC50", "setting": "[14]", "result": "> 10000", "unit": "nM"}, {"measurement": "Tmax", "setting": "[15]", "result": 8, "unit": "h"}, {"measurement": "AUC", "setting": "[16]", "result": 76.3, "unit": "µM·h"}, {"measurement": "IC50", "setting": "[17]", "result": 1340, "unit": "nM"}, {"measurement": "IC50", "setting": "[18]", "result": 2860, "unit": "nM"}, {"measurement": "Vd", "setting": "[19]", "result": 21.2, "unit": "L/kg"}, {"measurement": "clearance", "setting": "[20]", "result": 36.8, "unit": "mL/min/kg"}, {"measurement": "bioavailability", "setting": "[21]", "result": 55, "unit": "%"}, {"measurement": "Cmax", "setting": "[22]", "result": 259, "unit": "nM"}, {"measurement": "IC50", "setting": "[23]", "result": 672, "unit": "nM"}, {"measurement": "T/C", "setting": "[24]", "result": -33, "unit": "%"}, {"measurement": "IC50", "setting": "[25]", "result": 610, "unit": "nM"}, {"measurement": "IC50", "setting": "[26]", "result": 4720, "unit": "nM"}, {"measurement": "INH", "setting": "[27]", "result": 1.5, "unit": "µM"}, {"measurement": "Cmax", "setting": "[28]", "result": 696, "unit": "nM"}, {"measurement": "AUC", "setting": "[29]", "result": 67.9, "unit": "µM·h"}, {"measurement": "clearance", "setting": "[30]", "result": 9.2, "unit": "mL/min/kg"}, {"measurement": "IC50", "setting": "[31]", "result": "> 10000", "unit": "nM"}, {"measurement": "AUC", "setting": "[32]", "result": 5.63, "unit": "µM·h"}, {"measurement": "MTD", "setting": "[33]", "result": 6.25, "unit": "mg/kg"}, {"measurement": "half-life", "setting": "[34]", "result": 9.1, "unit": "h"}, {"measurement": "IC50", "setting": "[35]", "result": 23, "unit": "nM"}, {"measurement": "Cmax", "setting": "[36]", "result": 2530, "unit": "nM"}, {"measurement": "IC50", "setting": "[37]", "result": 7920, "unit": "nM"}, {"measurement": "T/C", "setting": "[38]", "result": 2, "unit": "%"}, {"measurement": "Activity", "setting": "[39]", "result": "Non-toxic"}, {"measurement": "IC50", "setting": "[40]", "result": 3050, "unit": "nM"}, {"measurement": "T/C", "setting": "[41]", "result": -100, "unit": "%"}, {"measurement": "T/C", "setting": "[42]", "result": 74, "unit": "%"}]}]}
